Assay results reported in PubChem BioAssay AID2060614 (Molecular Pharmacology Branch, DTP, NCI, 2025).
pIC50: −log10 of the molar value. Values belong to the compound of their own block, whether it stands above or below them.

Test system: 598228-144-R-J1-PDC complex spheroids, viability
Experiment: Anticancer human tumor 598228-144-R-J1-PDC patient-derived serous endometrial adenocarcinoma cell line growth inhibition [CLK]
Conditions: for pIC50: curve of first compound; for viability, T/C: stronger effect = lower value
In short: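 Patient-derived tumor cells grown as complex spheroids with HUVEC endothelial cells and mesenchymal stem cells, treated with drug combinations. Concentrations descend in half-log steps from near clinical Cmax, or from 10 microM if Cmax unknown.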

[1] = second compound 0.0316 µM, first compound 0.0316 µM
[2] = second compound 0.0316 µM, first compound 0.1 µM
[3] = second compound 0.0316 µM, first compound 0.316 µM
[4] = second compound 0.0316 µM, first compound 1 µM
[5] = second compound 0.0316 µM, first compound 3.16 µM
[6] = second compound 0.0316 µM, first compound 10 µM
[7] = second compound 0.1 µM, first compound 0.0316 µM
[8] = second compound 0.1 µM, first compound 0.1 µM
[9] = second compound 0.1 µM, first compound 0.316 µM
[10] = second compound 0.1 µM, first compound 1 µM
[11] = second compound 0.1 µM, first compound 3.16 µM
[12] = second compound 0.1 µM, first compound 10 µM
[13] = second compound 0.316 µM, first compound 0.0316 µM
[14] = second compound 0.316 µM, first compound 0.1 µM
[15] = second compound 0.316 µM, first compound 0.316 µM
[16] = second compound 0.316 µM, first compound 1 µM
[17] = second compound 0.316 µM, first compound 3.16 µM
[18] = second compound 0.316 µM, first compound 10 µM
[19] = second compound 1 µM, first compound 0.0316 µM
[20] = second compound 1 µM, first compound 0.1 µM
[21] = second compound 1 µM, first compound 0.316 µM
[22] = second compound 1 µM, first compound 1 µM
[23] = second compound 1 µM, first compound 3.16 µM
[24] = second compound 1 µM, first compound 10 µM
[25] = second compound 3.16 µM, first compound 0.0316 µM
[26] = second compound 3.16 µM, first compound 0.1 µM
[27] = second compound 3.16 µM, first compound 0.316 µM
[28] = second compound 3.16 µM, first compound 1 µM
[29] = second compound 3.16 µM, first compound 3.16 µM
[30] = second compound 3.16 µM, first compound 10 µM
[31] = second compound 10 µM, first compound 0.0316 µM
[32] = second compound 10 µM, first compound 0.1 µM
[33] = second compound 10 µM, first compound 0.316 µM
[34] = second compound 10 µM, first compound 1 µM
[35] = second compound 10 µM, first compound 3.16 µM
[36] = second compound 10 µM, first compound 10 µM
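Note: spheroids exposed to compounds for seven days before readout.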
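Throughout, for viability, T/C: 100% = DMSO vehicle control wells.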

pIC50 (second compound 0.0316 µM): > 7.50 | pIC50 (second compound 0.1 µM): < 5.00 | pIC50 (second compound 0.316 µM): < 5.00 | pIC50 (second compound 1 µM): < 5.00 | pIC50 (second compound 3.16 µM): < 5.00 | pIC50 (second compound 10 µM): < 5.00
SMILES: CC(=O)O[C@H]1C(=O)[C@@]2(C)[C@H]([C@H](OC(=O)c3ccccc3)[C@]3(O)C[C@H](OC(=O)[C@H](O)[C@@H](NC(=O)c4ccccc4)c4ccccc4)C(C)=C1C3(C)C)[C@]1(OC(C)=O)CO[C@@H]1C[C@@H]2O + CNC(=O)c1ccc(Nc2nc(OC3CCCC3)c3c(-c4ccc5nc(C)oc5c4)c[nH]c3n2)c(OC)c1
viability, T/C [1]: 45.6% | viability, T/C [2]: 46.2% | viability, T/C [3]: 40.3% | viability, T/C [4]: 40.9% | viability, T/C [5]: 45.2% | viability, T/C [6]: 50.6% | viability, T/C [7]: 70% | viability, T/C [8]: 58% | viability, T/C [9]: 64.8% | viability, T/C [10]: 66.2% | viability, T/C [11]: 57.4% | viability, T/C [12]: 67% | viability, T/C [13]: 121% | viability, T/C [14]: 123% | viability, T/C [15]: 94.9% | viability, T/C [16]: 108% | viability, T/C [17]: 106% | viability, T/C [18]: 84.1% | viability, T/C [19]: 120% | viability, T/C [20]: 102% | viability, T/C [21]: 92.5% | viability, T/C [22]: 125% | viability, T/C [23]: 109% | viability, T/C [24]: 86.8% | viability, T/C [25]: 102% | viability, T/C [26]: 96.2% | viability, T/C [27]: 103% | viability, T/C [28]: 108% | viability, T/C [29]: 105% | viability, T/C [30]: 92.1% | viability, T/C [31]: 101% | viability, T/C [32]: 97% | viability, T/C [33]: 109% | viability, T/C [34]: 103% | viability, T/C [35]: 90.4% | viability, T/C [36]: 107%

pIC50 (second compound 0.0316 µM): 7.29 | pIC50 (second compound 0.1 µM): 7.25 | pIC50 (second compound 0.316 µM): 7.00 | pIC50 (second compound 1 µM): 7.21 | pIC50 (second compound 3.16 µM): 7.27 | pIC50 (second compound 10 µM): 7.48
SMILES: CCc1c2c(nc3ccc(O)cc13)-c1cc3c(c(=O)n1C2)COC(=O)[C@]3(O)CC + CNC(=O)c1ccc(Nc2nc(OC3CCCC3)c3c(-c4ccc5nc(C)oc5c4)c[nH]c3n2)c(OC)c1
viability, T/C (second compound 0.0316 µM, first compound 0.00316 µM): 91% | viability, T/C (second compound 0.0316 µM, first compound 0.01 µM): 77.3% | viability, T/C [1]: 65.9% | viability, T/C [2]: 30.8% | viability, T/C [3]: 14.4% | viability, T/C [4]: 6.44% | viability, T/C (second compound 0.1 µM, first compound 0.00316 µM): 106% | viability, T/C (second compound 0.1 µM, first compound 0.01 µM): 84.5% | viability, T/C [7]: 65.2% | viability, T/C [8]: 38.5% | viability, T/C [9]: 16.2% | viability, T/C [10]: 14.9% | viability, T/C (second compound 0.316 µM, first compound 0.00316 µM): 124% | viability, T/C (second compound 0.316 µM, first compound 0.01 µM): 111% | viability, T/C [13]: 97% | viability, T/C [14]: 48.3% | viability, T/C [15]: 21.6% | viability, T/C [16]: 10.5% | viability, T/C (second compound 1 µM, first compound 0.00316 µM): 117% | viability, T/C (second compound 1 µM, first compound 0.01 µM): 95% | viability, T/C [19]: 73.8% | viability, T/C [20]: 33.2% | viability, T/C [21]: 16.3% | viability, T/C [22]: 10.8% | viability, T/C (second compound 3.16 µM, first compound 0.00316 µM): 108% | viability, T/C (second compound 3.16 µM, first compound 0.01 µM): 95.9% | viability, T/C [25]: 63.9% | viability, T/C [26]: 32.9% | viability, T/C [27]: 17.3% | viability, T/C [28]: 8.19% | viability, T/C (second compound 10 µM, first compound 0.00316 µM): 110% | viability, T/C (second compound 10 µM, first compound 0.01 µM): 85.9% | viability, T/C [31]: 49.3% | viability, T/C [32]: 27.5% | viability, T/C [33]: 13.8% | viability, T/C [34]: 9.24%

pIC50 (second compound 0.0316 µM): 6.61 | pIC50 (second compound 0.1 µM): 6.60 | pIC50 (second compound 0.316 µM): 6.64 | pIC50 (second compound 1 µM): 6.79 | pIC50 (second compound 3.16 µM): 7.00 | pIC50 (second compound 10 µM): 6.98
SMILES: COc1cccc2c1C(=O)c1c(O)c3c(c(O)c1C2=O)CC(O)(C(=O)CO)CC3OC1CC(N)C(O)C(C)O1 (stereo not given) + CNC(=O)c1ccc(Nc2nc(OC3CCCC3)c3c(-c4ccc5nc(C)oc5c4)c[nH]c3n2)c(OC)c1
viability, T/C [1]: 102% | viability, T/C [2]: 83.6% | viability, T/C [3]: 40.4% | viability, T/C [4]: 11.3% | viability, T/C [5]: 0.76% | viability, T/C [6]: 0.83% | viability, T/C [7]: 122% | viability, T/C [8]: 106% | viability, T/C [9]: 36.5% | viability, T/C [10]: 7.7% | viability, T/C [11]: 0.47% | viability, T/C [12]: 1.08% | viability, T/C [13]: 123% | viability, T/C [14]: 128% | viability, T/C [15]: 19.1% | viability, T/C [16]: 4.16% | viability, T/C [17]: 0.73% | viability, T/C [18]: 4.66% | viability, T/C [19]: 121% | viability, T/C [20]: 76.1% | viability, T/C [21]: 14.2% | viability, T/C [22]: 1.56% | viability, T/C [23]: 0.81% | viability, T/C [24]: 0.82% | viability, T/C [25]: 110% | viability, T/C [26]: 49.8% | viability, T/C [27]: 17.1% | viability, T/C [28]: 1.2% | viability, T/C [29]: 2.45% | viability, T/C [30]: 1.09% | viability, T/C [31]: 103% | viability, T/C [32]: 51.7% | viability, T/C [33]: 11.6% | viability, T/C [34]: 1.39% | viability, T/C [35]: 1.63% | viability, T/C [36]: 2.68%

pIC50 (second compound 0.0316 µM): > 7.50 | pIC50 (second compound 0.1 µM): > 7.50 | pIC50 (second compound 0.316 µM): 7.27 | pIC50 (second compound 1 µM): 7.27 | pIC50 (second compound 3.16 µM): 7.31 | pIC50 (second compound 10 µM): 7.35
SMILES: Nc1ccn(C2OC(CO)C(O)C2(F)F)c(=O)n1 (stereo not given) + CNC(=O)c1ccc(Nc2nc(OC3CCCC3)c3c(-c4ccc5nc(C)oc5c4)c[nH]c3n2)c(OC)c1
viability, T/C [1]: 50.8% | viability, T/C [2]: 36.9% | viability, T/C [3]: 27.4% | viability, T/C [4]: 34.7% | viability, T/C [5]: 39% | viability, T/C [6]: 34.4% | viability, T/C [7]: 57.3% | viability, T/C [8]: 33.6% | viability, T/C [9]: 26.9% | viability, T/C [10]: 36.3% | viability, T/C [11]: 36.4% | viability, T/C [12]: 34.7% | viability, T/C [13]: 63.4% | viability, T/C [14]: 34.5% | viability, T/C [15]: 32.2% | viability, T/C [16]: 29.6% | viability, T/C [17]: 39.5% | viability, T/C [18]: 37% | viability, T/C [19]: 65.3% | viability, T/C [20]: 32.6% | viability, T/C [21]: 23.9% | viability, T/C [22]: 29% | viability, T/C [23]: 36.4% | viability, T/C [24]: 28.7% | viability, T/C [25]: 63% | viability, T/C [26]: 24.2% | viability, T/C [27]: 26.2% | viability, T/C [28]: 24.3% | viability, T/C [29]: 34.3% | viability, T/C [30]: 33.6% | viability, T/C [31]: 60.2% | viability, T/C [32]: 26.9% | viability, T/C [33]: 21.4% | viability, T/C [34]: 22.6% | viability, T/C [35]: 26.5% | viability, T/C [36]: 31.5%

pIC50 (second compound 0.0316 µM): < 5.00 | pIC50 (second compound 0.1 µM): < 5.00 | pIC50 (second compound 0.316 µM): < 5.00 | pIC50 (second compound 1 µM): < 5.00 | pIC50 (second compound 3.16 µM): < 5.00 | pIC50 (second compound 10 µM): < 5.00
SMILES: O=c1[nH]cc(F)c(=O)[nH]1 + CNC(=O)c1ccc(Nc2nc(OC3CCCC3)c3c(-c4ccc5nc(C)oc5c4)c[nH]c3n2)c(OC)c1
viability, T/C [1]: 99.7% | viability, T/C [2]: 113% | viability, T/C [3]: 107% | viability, T/C [4]: 103% | viability, T/C [5]: 99.9% | viability, T/C [6]: 86.5% | viability, T/C [7]: 116% | viability, T/C [8]: 111% | viability, T/C [9]: 128% | viability, T/C [10]: 115% | viability, T/C [11]: 101% | viability, T/C [12]: 76.6% | viability, T/C [13]: 108% | viability, T/C [14]: 106% | viability, T/C [15]: 110% | viability, T/C [16]: 112% | viability, T/C [17]: 96.2% | viability, T/C [18]: 90% | viability, T/C [19]: 102% | viability, T/C [20]: 99.7% | viability, T/C [21]: 94.5% | viability, T/C [22]: 101% | viability, T/C [23]: 93.4% | viability, T/C [24]: 83.6% | viability, T/C [25]: 95% | viability, T/C [26]: 97% | viability, T/C [27]: 97.1% | viability, T/C [28]: 83.1% | viability, T/C [29]: 94.5% | viability, T/C [30]: 77.3% | viability, T/C [31]: 87.8% | viability, T/C [32]: 86.6% | viability, T/C [33]: 89.8% | viability, T/C [34]: 88.5% | viability, T/C [35]: 77.8% | viability, T/C [36]: 65.2%
